Patent US7211597B2, “Substituted pyrazolyl compounds for the treatment of inflammation” (priority 2001, dated 2007)

Each molecule was assayed against T1, IKK heterodimer (rhIKK1/IKK2) (Homo sapiens, UniProt O14920+O15111) (assay: IKK heterodimer resin enzyme assay). Settings: Table 1; read-out: HetD (IKK heterodimer assay values expressed as IC50).
T1 construct: made in house; host or cells: baculovirus-infected insect cells (SF9)
T1 sequence (O14920 1-756): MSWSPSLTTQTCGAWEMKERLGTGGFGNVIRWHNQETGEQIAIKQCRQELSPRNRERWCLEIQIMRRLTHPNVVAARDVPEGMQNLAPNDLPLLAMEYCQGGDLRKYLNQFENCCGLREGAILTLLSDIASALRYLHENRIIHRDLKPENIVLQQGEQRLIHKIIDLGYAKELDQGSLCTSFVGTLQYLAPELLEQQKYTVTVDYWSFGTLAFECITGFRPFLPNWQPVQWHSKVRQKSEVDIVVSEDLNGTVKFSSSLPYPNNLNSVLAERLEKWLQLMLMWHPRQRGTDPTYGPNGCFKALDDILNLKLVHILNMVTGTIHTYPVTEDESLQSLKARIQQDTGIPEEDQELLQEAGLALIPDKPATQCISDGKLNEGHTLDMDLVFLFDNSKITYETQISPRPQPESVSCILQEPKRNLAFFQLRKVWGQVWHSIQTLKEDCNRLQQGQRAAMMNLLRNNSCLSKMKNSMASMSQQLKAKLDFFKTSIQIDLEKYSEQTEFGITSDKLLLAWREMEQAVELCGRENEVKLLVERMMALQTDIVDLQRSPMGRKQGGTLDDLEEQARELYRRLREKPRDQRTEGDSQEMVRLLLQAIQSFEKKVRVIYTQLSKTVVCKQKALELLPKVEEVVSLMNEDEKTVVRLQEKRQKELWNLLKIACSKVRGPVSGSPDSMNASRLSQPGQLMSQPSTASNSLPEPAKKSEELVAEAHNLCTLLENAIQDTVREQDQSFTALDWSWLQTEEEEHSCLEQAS
T1 sequence (O15111 1-745): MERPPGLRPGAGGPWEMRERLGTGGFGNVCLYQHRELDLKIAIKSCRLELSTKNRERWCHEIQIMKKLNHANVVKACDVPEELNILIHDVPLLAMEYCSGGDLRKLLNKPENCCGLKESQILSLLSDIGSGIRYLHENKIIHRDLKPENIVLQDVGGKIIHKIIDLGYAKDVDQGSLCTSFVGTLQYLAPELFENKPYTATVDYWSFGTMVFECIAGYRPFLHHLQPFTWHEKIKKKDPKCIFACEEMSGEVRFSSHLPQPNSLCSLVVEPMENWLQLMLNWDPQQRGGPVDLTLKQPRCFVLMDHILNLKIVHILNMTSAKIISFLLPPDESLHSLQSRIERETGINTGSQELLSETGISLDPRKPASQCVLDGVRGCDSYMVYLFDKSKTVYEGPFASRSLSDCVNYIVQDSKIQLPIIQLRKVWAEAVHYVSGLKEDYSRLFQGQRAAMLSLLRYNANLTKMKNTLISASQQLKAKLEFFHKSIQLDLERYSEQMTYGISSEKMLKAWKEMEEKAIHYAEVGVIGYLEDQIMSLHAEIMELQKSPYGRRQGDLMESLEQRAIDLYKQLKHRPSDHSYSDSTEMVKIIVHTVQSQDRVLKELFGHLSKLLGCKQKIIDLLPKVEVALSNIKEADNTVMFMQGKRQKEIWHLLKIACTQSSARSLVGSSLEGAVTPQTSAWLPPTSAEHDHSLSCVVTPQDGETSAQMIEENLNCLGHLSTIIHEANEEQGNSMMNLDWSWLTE
Assay type: biochemical
Text: cDNAs of human IKK1 and IKK2 were amplified by reverse transcriptase-polymerase chain reaction from human placental RNA (Clonetech). hIKK1 was subcloned into pFastBac HTa (Life Technologies) and expressed as N-terminal His6-tagged fusion protein. The hIKK2 cDNA was amplified using a reverse oligonucleotide primer which incorporated the peptide sequence for a FLAG-epitope tag at the C-terminus of the IKK2 coding region (DYKDDDDKD). The hIKK2:FLAG cDNA was subcloned into the baculovirus vector pFastBac. The rhIKK2 ([…]) mutant was constructed in the same vector used for wild type rhIKK2 using a QuikChange™ mutagenesis kit (Stratagene). Viral stocks of each construct were used to infect insect cells grown in 40L suspension culture. […] Cell lysates were stored at −80° C. until purification of the recombinant proteins was undertaken as described below.
Isolation of rhIKK1/IKK2 Heterodimer
The heterodimer enzyme was produced by coinfection in a baculovirus system (FLAG IKK2/IKK1 His; MOI=0.1 and I=72 hrs). Infected cells were centrifuged and the cell pellet (10.0 g) was suspended in 50 ml of buffer A. The protein suspension was microfluidized and centrifuged at 100,000×g for 45 min. Imidazole was added to the supernatant to a final concentration of 10 mM. The protein was allowed to bind 25 ml of Ni-NTA resin by mixing for 2 hrs. The protein-resin slurry was poured into a 25 ml column and washed with 250 ml of buffer A containing 10 mM imidazole followed by 125 ml of buffer A containing 50 mM imidazole. Buffer A, containing 300 mM imidazole, was then used to elute the protein. A 75 ml pool was collected and NP-40 was added to a final concentration of 0.1%. The protein solution was then dialyzed against buffer B. The dialyzed heterodimer enzyme was then allowed to bind to 25 ml of anti-FLAG M2 agarose affinity gel overnight with constant mixing. The protein-resin slurry was then centrifuged for 5 min at 2,000 rpm. The supernatant was collected and the resin re-suspended in 100 ml of buffer C containing 0.1% NP-40. The resin was washed with 375 ml of buffer C containing 0.1% NP-40. The protein-resin was poured into a 25 ml column and the enzyme eluted using buffer B containing FLAG peptide. Enzyme fractions (100 ml) were collected and concentrated to 20 ml using an Amicon membrane with molecular weight cut-off of 30 kDa. Bovine serum albumin was added to the concentrated enzyme to final concentration of 0.1%. The enzyme was then aliquoted and stored at −80° C.
IKK Heterodimer Resin Enzyme Assay
IKK heterodimer kinase activity was measured using a biotinylated IκBα peptide (Gly-Leu-Lys-Lys-Glu-Arg-Leu-Leu-Asp-Asp-Arg-His-Asp-Ser32-Gly-Leu-Asp-Ser36-Met-Lys-Asp-Glu-Glu) (American Peptide Co.). 20 ul of the standard reaction mixture contained 5 μM biotinylated IκBα peptide, 0.1 μCi/reaction [γ-^33P] ATP (Amersham) (about 1×10^5 cpm), 1 μM ATP (Sigma), 1 mM DTT (Sigma), 2 mM MgCl2 (Sigma), 2 mM MnCl2 (Sigma), 10 mM NaF (Sigma), 25 mM Hepes (Sigma) buffer, pH 7.6 and 20 μl enzyme solution and 10 μl inhibitor in a final volume of 50 μl. After incubation at 25° C. for 30 min, 150 μl resin (Dowex anion-exchange resin AG1X8 200-400 mesh) in 900 mM formate, pH 3.0 was added to each well to stop the reaction. Resin was allowed to settle for one hour and 50 ul of supernatant was removed to a Micolite-2 flat bottom plate (Dynex). 150 μl of scintillation fluid (Microscint 40) (Packard) was added to each well. Incorporation of [γ-^33P] ATP was measured using a Top-Count NXT (Packard).

Row | Structure (SMILES) | IC50 [µM]
1 | CCOC(=O)c1nn(-c2ccc(OOSN)cc2)c2c1SCc1ccccc1-2 [Example 9, ethyl 1-{4-[(aminothio)peroxy]phenyl}-1,5-dihydroisothiochromeno[4,3-c]pyrazole-3-carboxylate] | > 100
2 | NSOOc1ccc(-n2nc(C(N)=O)c3c2-c2ccccc2CS3)cc1 [Example 10, 1-{4-[(aminothio)peroxy]phenyl}-1,5-dihydroisothiochromeno[4,3-c]pyrazole-3-carboxamide] | > 100
3 | NSOOc1ccc(-n2nc(C(N)=O)c3c2-c2ccc4c(c2CS3)OCO4)cc1 [Example 11, 8-{4-[(aminothio)peroxy]phenyl}-4,8-dihydro[1,3]dioxolo[7,8]isothiochromeno[4,3-c]pyrazole-6-carboxamide] | > 100
4 | CCOC(=O)c1nn(-c2ccc(S(N)(=O)=O)cc2)c2c1CNc1ccccc1-2 [Example 12, ethyl 1-[4-(aminosulfonyl)phenyl]-4,5-dihydro-1H-pyrazolo[4,3-c]quinoline-3-carboxylate] | > 100
5 | CCOC(=O)c1nn(-c2ccc(S(N)(=O)=O)cc2)c2c1CN(S(=O)(=O)c1ccc(C)cc1)c1ccccc1-2 [Example 14, ethyl 1-[4-(aminosulfonyl)phenyl]-5-[(4-methylphenyl)sulfonyl]-4,5-dihydro-1H-pyrazolo[4,3-c]quinoline-3-carboxylate] | > 100
6 | Cc1ccc(S(=O)(=O)N2Cc3c(C(N)=O)nn(-c4ccc(S(N)(=O)=O)cc4)c3-c3ccccc32)cc1 [Example 15, 1-[4-(aminosulfonyl)phenyl]-5-[(4-methylphenyl)sulfonyl]-4,5-dihydro-1H-pyrazolo[4,3-c]quinoline-3-carboxamide] | > 100
